Patent US20210000889A1, “METHODS FOR PROGNOSING AND TREATING METABOLIC DISEASES” (INSERM (INSTITUT NATIONAL DE LA SANTÉ ET DE LA RECHERCHE …, priority 2018, published 2021)

Assays:
WT mice on HFD = experiment: IAA supplementation in drinking water of WT mice on HFD; type: in vivo; details: IAA 2 mg/ml in drinking water, HFD 11 weeks, vs not supplemented, FIG. 3
Experimental: (a) feces IAA (indole acetic acid) (b) ITT, and quantification of M2-like macrophages (F4/80+CD11b+CD206+ in epiWAT) and CD45+ cells (n=5 per group) (c-d), in WT mice supplemented or not with IAA (diluted in drinking water, 2 mg/ml) and put on HFD during 11 weeks (n=9-10 per group Data are expressed as mean±sem. *P≤0.05, **p<0.001, ***p<0.0001.
For oral glucose tolerance test (OGTT), mice were fasted overnight prior to an oral administration of 1-5 g/kg glucose. Blood was sampled from the tail vein at 0, 5, 15, 30, 60, 90 and 120 min in order to assay glucose concentration (OneTouch Ultra glucometer, LifeScan Europe). At 0, 15, 30, 60 min tail vein blood was collected, plasma samples were stored at −20° C. until they were analyzed for insulin concentration (Crystal Chem Inc., Downers Grove, USA). Insulin tolerance test (ITT) was performed in mice food deprived for 5 h prior to an intraperitonial injection of 1 U/kg insulin. Blood was sampled from the tail vein at 0, 5, 15, 30, 60 and 90 min in order to assay glucose concentration. […]
The stromal vascular fraction (SVF) containing mononuclear cells and preadipocytes was extracted from adipose tissue. […] The SVF pellet was resuspended in 1 mL fluorescence-activated cell sorter (FACS) buffer. […] Samples were acquired using an Fortessa cytometer (Becton Dickinson) and analyzed with FlowJo (TreeStar) software programs.

ob/ob mice = experiment: 1MT treatment of ob/ob mice (drinking water); type: in vivo
Excerpt: Male C57Bl/6 Ido-1−/− mice were bought from the Jackson Laboratory (Jax) and bred in our facility. At weaning, mice were separated according to the genotype. Male ob/ob mice were bought from Janvier Laboratory at 4 weeks of age. Mice were fed with either a normal chow diet (NCD) (A03, SAFE, France) or subjected to diet-induced obesity containing 60% FAT (E15742-347, SSNIFF, Germany). High fat diet (HFD) was started at 7 weeks of age and continued for 20 weeks or less with ad libitum access to water and food. For chimerism experiment, we subjected 10 weeks old C57BL/6 WT and C57BL/6 Ido-1−/− to medullar aplasia by 9.5 gray lethal total body irradiation. We repopulated the mice with an intravenous injection of bone marrow cells isolated from femurs and tibias of male C57BL/6 WT and C57BL/6 Ido-1−/−. After 4 weeks of recovery, mice were fed a HFD for 20 weeks. In some experiments, IDO inhibitor (L-1methyl tryptophan, 1MT) (Sigma) was used at 2 mg/mL diluted in drinking water. […]
For oral glucose tolerance test (OGTT), mice were fasted overnight prior to an oral administration of 1-5 g/kg glucose. […] At 0, 15, 30, 60 min tail vein blood was collected, plasma samples were stored at −20° C. until they were analyzed for insulin concentration (Crystal Chem Inc., Downers Grove, USA). […]
HPLC Quantifications Thawed stools from mice were extracted as previously described 12. L-tryptophan (Trp) and L-kynurenine (Kyn) were measured via HPLC using a coulometric electrode array (ESA Coultronics, ESA Laboratories, Chelsford, Mass., USA)13. Quantifications were performed by referencing calibration curves obtained with internal standards. Other compounds (IAA) were quantified via liquid chromatography coupled to mass spectrometry (LC-MS) by using a Waters ACQUITY ultraperformance liquid chromatography (UPLC) system equipped with a binary solvent delivery manager and sample manager (Waters Corporation, Milford, Mass., USA) and that was coupled to a tandem quadrupole-time-of-flight (Q-TOF) mass spectrometer equipped with an electrospray interface (Waters Corporation). […]

[1] = 1MT 2 mg/mL in drinking water, vs untreated, data not shown

SMILES | adipose inflammation (M2-like macrophages and CD45+ cells in epiWAT) (WT mice on HFD) | insulin resistance (ITT) (WT mice on HFD) | body weight (ob/ob mice; [1]) | insulin sensitivity (ob/ob mice; [1]) | ratio of Kyn/Trp in the feces (ob/ob mice; 1MT-treated vs not treated, FIG. 1j)
O=C(O)Cc1c[nH]c2ccccc12 [IAA, indole-3-acetic acid] | decreases | decreases insulin resistance |  |  | 
Cn1cc(C[C@H](N)C(=O)O)c2ccccc21 [1MT, L-1methyl tryptophan] |  |  | no difference in body weight | improved insulin sensitivity | significant decrease
